According to PMC10961402, “Safety, tolerability, pharmacokinetics and pharmacokinetic-pharmacodynamic modeling of cetagliptin in patients with type 2 diabetes mellitus” (Frontiers in Endocrinology, 2024):
Like-named read-outs stand apart in the source and are kept apart here.

How the values were obtained:
[1] = tested on: glucose, insulin, C-peptide, and glucagon; assay: Oral glucose tolerance test (OGTT): glucose, insulin, C-peptide, glucagon; assay type: in vivo, human; design: change of AUEC0-3 h relative to baseline for insulin (OGTT) / change of AUEC0-3 h relative to baseline for C-peptide (OGTT) / change of AUEC0-3 h relative to baseline for glucagon (OGTT) / C-peptide AUEC0-t (OGTT) / glucagon AUEC0-t (OGTT) / insulin AUEC0-t (OGTT): unit not given here; settings: patients with T2DM; for change of AUEC0-3 h relative to baseline for C-peptide (OGTT) / change of AUEC0-3 h relative to baseline for glucagon (OGTT) / change of AUEC0-3 h relative to baseline for insulin (OGTT) / change of AUEC0-3 h relative to baseline for plasma glucose (OGTT): day 15 vs day -1
Protocol: To assess the impact of investigational products on glucose, insulin, C-peptide, and glucagon, OGTT tests were conducted on day -1 and day 15 following a fasting period of more than 8 hours. Subjects received a 75 g oral glucose dose and blood samples (1.5 mL for glucose, 3.5 mL for insulin and C-peptide, 2 mL for glucagon) were collected at 0, 0.167, 0.5, 1, 1.5, 2, and 3 h after ingestion of glucose. The PD parameters (AUEC0-t) for glucose, insulin, C-peptide, and glucagon were calculated by using drug effect module of non-compartmental method with Phoenix WinNonlin.

[2] = Safety and tolerability assessments (adverse events); assay type: in vivo, human; settings: patients with T2DM
Protocol: Safety and tolerability were evaluated by monitoring adverse events (AEs), laboratory tests (including blood routine, urine routine, stool routine, blood biochemical test and coagulation function), vital signs, physical examination, 12-lead electrocardiogram and other indicators. AEs were monitored and collected throughout the study. Descriptive analysis of the type and intensity of AEs were conducted according to NCICTC AE5.0.

[3] = design: method as in PMID 34965609; settings: healthy subjects, cited from earlier work
[4] = 50 mg group, day -1 (baseline before dosing)
[5] = 100 mg group, day -1 (baseline before dosing)
[6] = day 15 after 50 mg once daily for 14 days
[7] = day 15 after 100 mg once daily for 14 days
[8] = cetagliptin group (50 or 100 mg, n=20) / sitagliptin group (100 mg, n=8), 14 days

SMILES: C[C@@H]1c2cnc(C(F)(F)F)n2CCN1C(=O)C[C@H](N)Cc1cc(F)c(F)cc1F.O=P(O)(O)O [Cetagliptin, cetagliptin]
- C-peptide AUEC0-t (OGTT) [1, 4]: 4072.02 ± 1174.82
- glucagon AUEC0-t (OGTT) [1, 4]: 469.51 ± 189.76
- glucose AUEC0-t (OGTT) [1, 4]: 48.65 ± 5.34 mmol·h/L
- insulin AUEC0-t (OGTT) [1, 4]: 431.53 ± 271.81
- change of AUEC0-3 h relative to baseline for C-peptide (OGTT) ([1]; 50 mg once daily): 1851.30
- change of AUEC0-3 h relative to baseline for glucagon (OGTT) ([1]; 50 mg once daily): -72.70
- change of AUEC0-3 h relative to baseline for insulin (OGTT) ([1]; 50 mg once daily): 219.90
- change of AUEC0-3 h relative to baseline for plasma glucose (OGTT) ([1]; 50 mg once daily): -4.97 mmol·h/L
- C-peptide AUEC0-t (OGTT) [1, 5]: 6059.64 ± 1263.61
- glucagon AUEC0-t (OGTT) [1, 5]: 503.79 ± 161.61
- glucose AUEC0-t (OGTT) [1, 5]: 40.59 ± 2.87 mmol·h/L
- insulin AUEC0-t (OGTT) [1, 5]: 716.44 ± 250.84
- change of AUEC0-3 h relative to baseline for C-peptide (OGTT) ([1]; 100 mg once daily): 1761.48
- change of AUEC0-3 h relative to baseline for glucagon (OGTT) ([1]; 100 mg once daily): -7.21
- change of AUEC0-3 h relative to baseline for insulin (OGTT) ([1]; 100 mg once daily): 292.18
- change of AUEC0-3 h relative to baseline for plasma glucose (OGTT) ([1]; 100 mg once daily): -2.76 mmol·h/L
- C-peptide AUEC0-t (OGTT) [1, 6]: 5923.31 ± 2012.97
- glucagon AUEC0-t (OGTT) [1, 6]: 396.81 ± 51.89
- glucose AUEC0-t (OGTT) [1, 6]: 43.68 ± 8.04 mmol·h/L
- insulin AUEC0-t (OGTT) [1, 6]: 651.43 ± 455.05
- C-peptide AUEC0-t (OGTT) [1, 7]: 7821.13 ± 2023.09
- glucagon AUEC0-t (OGTT) [1, 7]: 496.58 ± 158.93
- glucose AUEC0-t (OGTT) [1, 7]: 37.83 ± 5.09 mmol·h/L
- insulin AUEC0-t (OGTT) [1, 7]: 1008.62 ± 367.20
- intensity of drug-related adverse events ([2]; cetagliptin 50 or 100 mg, sitagliptin 100 mg, 14 days): mild
- number of drug-related AEs [2, 8]: 3 AEs
- number of subjects reporting drug-related AEs [2, 8]: 2 subjects
- serious AEs or withdrawals due to AEs ([2]; once daily for 14 days): no serious AEs or withdraws due to AEs
- AUC0-τ (steady state) ([3]; 50 mg): 1440 ng·h/mL
- Cmax (steady state) ([3]; 50 mg): 125 ng/mL
- RAUC ([3]; 50 mg): 1.72
- Tmax (steady state) ([3]; 50 mg): 1.5 h
- t1/2 (steady state) ([3]; 50 mg): 38.8 h
- AUC0-τ (steady state) ([3]; 100 mg): 3120 ng·h/mL
- Cmax (steady state) ([3]; 100 mg): 294 ng/mL
- RAUC ([3]; 100 mg): 1.38
- Tmax (steady state) ([3]; 100 mg): 1.0 h
- t1/2 (steady state) ([3]; 100 mg): 36.6 h
